# Experimental data: ChEMBL document CHEMBL5055679, “Discovery of a Novel Androgen Receptor Antagonist Manifesting Evidence to Disrupt the Dimerization of the Ligand-Binding Domain via Attenuating the Hydrogen-Bonding Network Between the Two Monomers” (J Med Chem, 2021)
# The source made the active and inactive calls. No cut-off for these calls is given here.
# How the values were obtained:
# LNCaP C4-2 = test: Cytotoxicity against human C4-2 cells assessed as reduction in cell viability incubated for 72 hrs by MTT assay; type: functional, cell-based
# [1] = target: T1, Androgen receptor (Homo sapiens) (UniProt P10275); test: Antagonist activity at androgen receptor in human LNCaP cells assessed as reduction in DHT-induced secreted PSA level; type: cell-based; conditions: filed as antagonist, dose 0.1-10 µM, time 48.0 hrs
# T1 sequence (whole entry): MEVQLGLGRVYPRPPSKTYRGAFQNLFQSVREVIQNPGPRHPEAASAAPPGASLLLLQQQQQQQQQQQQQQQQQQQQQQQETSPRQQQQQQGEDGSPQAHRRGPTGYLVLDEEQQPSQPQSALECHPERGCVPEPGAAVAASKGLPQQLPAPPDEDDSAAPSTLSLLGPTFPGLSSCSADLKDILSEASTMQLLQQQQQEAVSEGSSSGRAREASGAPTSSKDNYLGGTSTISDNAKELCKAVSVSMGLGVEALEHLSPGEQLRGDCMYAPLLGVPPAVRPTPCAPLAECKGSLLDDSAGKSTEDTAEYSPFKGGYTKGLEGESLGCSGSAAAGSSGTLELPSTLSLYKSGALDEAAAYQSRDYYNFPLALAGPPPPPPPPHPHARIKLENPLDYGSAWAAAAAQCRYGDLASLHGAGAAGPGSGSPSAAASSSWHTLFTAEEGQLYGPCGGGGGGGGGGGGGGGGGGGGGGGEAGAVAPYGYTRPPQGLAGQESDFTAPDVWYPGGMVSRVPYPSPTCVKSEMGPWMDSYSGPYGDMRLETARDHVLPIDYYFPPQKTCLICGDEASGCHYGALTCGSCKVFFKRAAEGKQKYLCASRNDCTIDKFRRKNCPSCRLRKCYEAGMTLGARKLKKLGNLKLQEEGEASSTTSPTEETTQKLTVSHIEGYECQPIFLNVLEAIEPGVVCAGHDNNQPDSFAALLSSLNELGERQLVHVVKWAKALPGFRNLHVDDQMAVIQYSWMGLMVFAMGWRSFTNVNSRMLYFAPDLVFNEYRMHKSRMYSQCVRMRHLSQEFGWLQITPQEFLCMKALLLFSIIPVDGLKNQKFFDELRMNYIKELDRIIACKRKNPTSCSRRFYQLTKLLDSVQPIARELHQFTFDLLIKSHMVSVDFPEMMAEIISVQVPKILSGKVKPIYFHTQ
# MCF7 = test: Cytotoxicity against human MCF7 cells assessed as reduction in cell viability at 50 uM incubated for 72 hrs by MTT assay; type: functional, cell-based
# HeLa = test: Cytotoxicity against human HeLa cells assessed as reduction in cell viability at low concentration incubated for 72 hrs by MTT assay; type: functional, cell-based
# Glucocorticoid receptor = target: T2, Glucocorticoid receptor (Homo sapiens, UniProt P04150); test: Antagonist activity at glucocorticoid receptor in human HeLa cells assessed as reduction in dexamethasone-induced luciferase activity by dual-Glo luciferase assay; type: cell-based
# T2 sequence (P04150 whole entry): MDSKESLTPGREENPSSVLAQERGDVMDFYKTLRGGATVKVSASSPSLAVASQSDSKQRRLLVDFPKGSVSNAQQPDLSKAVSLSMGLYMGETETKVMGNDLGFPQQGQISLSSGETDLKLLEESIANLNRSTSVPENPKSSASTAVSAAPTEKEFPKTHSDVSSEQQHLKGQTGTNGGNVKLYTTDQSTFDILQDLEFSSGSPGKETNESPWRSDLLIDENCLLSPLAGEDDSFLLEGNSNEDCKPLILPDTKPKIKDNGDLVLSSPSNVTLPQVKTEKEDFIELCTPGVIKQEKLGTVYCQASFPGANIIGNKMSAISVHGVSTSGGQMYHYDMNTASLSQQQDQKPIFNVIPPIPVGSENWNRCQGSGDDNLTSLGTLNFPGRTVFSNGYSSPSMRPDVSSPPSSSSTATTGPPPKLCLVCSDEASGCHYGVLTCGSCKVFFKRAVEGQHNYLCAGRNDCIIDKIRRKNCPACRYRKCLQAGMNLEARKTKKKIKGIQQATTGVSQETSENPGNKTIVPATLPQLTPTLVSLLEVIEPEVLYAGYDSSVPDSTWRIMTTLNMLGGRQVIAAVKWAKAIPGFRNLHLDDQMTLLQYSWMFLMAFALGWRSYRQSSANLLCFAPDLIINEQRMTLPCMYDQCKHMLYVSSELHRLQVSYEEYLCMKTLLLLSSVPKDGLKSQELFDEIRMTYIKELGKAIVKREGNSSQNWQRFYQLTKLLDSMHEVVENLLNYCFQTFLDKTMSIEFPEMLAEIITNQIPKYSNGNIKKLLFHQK
# [2] = target: T3, Progesterone receptor (Homo sapiens) (UniProt P06401); test: Antagonist activity at progesterone receptor in human HEK293T cells assessed as reduction in […] luciferase activity by dual-Glo luciferase assay; type: cell-based
# T3 sequence (whole entry): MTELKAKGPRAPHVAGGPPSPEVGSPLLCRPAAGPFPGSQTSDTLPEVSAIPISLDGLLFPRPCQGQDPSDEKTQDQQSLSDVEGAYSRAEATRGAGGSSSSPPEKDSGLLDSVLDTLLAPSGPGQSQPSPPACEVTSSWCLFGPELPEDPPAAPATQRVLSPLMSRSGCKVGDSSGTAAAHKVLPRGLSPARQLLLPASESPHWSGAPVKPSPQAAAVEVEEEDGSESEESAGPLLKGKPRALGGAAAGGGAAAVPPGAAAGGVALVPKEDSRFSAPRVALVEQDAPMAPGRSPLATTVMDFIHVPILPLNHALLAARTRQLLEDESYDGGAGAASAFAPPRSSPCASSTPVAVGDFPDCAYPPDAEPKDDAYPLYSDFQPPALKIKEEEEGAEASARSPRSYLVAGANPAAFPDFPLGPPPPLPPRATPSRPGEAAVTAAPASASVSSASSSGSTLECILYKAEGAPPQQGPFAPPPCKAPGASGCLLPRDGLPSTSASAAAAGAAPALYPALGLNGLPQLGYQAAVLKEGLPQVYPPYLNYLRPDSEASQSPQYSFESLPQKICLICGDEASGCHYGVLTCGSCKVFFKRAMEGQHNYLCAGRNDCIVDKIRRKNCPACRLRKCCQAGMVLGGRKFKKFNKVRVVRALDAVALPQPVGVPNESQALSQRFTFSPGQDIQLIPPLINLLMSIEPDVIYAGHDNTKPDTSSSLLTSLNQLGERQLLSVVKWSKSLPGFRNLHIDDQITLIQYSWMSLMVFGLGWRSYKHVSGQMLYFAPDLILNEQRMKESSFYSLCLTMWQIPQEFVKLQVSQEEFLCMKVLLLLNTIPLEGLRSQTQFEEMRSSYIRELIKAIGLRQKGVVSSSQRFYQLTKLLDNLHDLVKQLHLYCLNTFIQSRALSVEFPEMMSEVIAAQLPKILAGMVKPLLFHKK
structure (smiles),measurement,setting,value
O=c1cc(C(F)(F)F)c2ccc(OCc3ccc(Br)cc3)cc2o1,Activity,LNCaP C4-2,Active
same,Activity,[1],Dose-dependent effect
same,Activity,MCF7,Active
same,Activity,HeLa,inactive
same,IC50,Glucocorticoid receptor,> 10 µM
same,Activity,[2],inactive
